Measurements published in patent US12595478B2, “Crispr-Cas systems having destabilization domain” (THE BROAD INSTITUTE, INC., priority 2016, dated 2026).

Tests used:
ER50.Cas9.ER50 = experiment: Cas9-mediated eGFP knockout (eGFP disruption) in U20S.eGFP-PEST cells nucleofected with ER50.Cas9.ER50; assay type: cell-based; conditions: increasing concentrations 0.5-1000 nM, 48 h
From the text: FIG. 3A-3B. […] (a) Representative images of conditional control of Cas9-mediated eGFP knockout in U20S.eGFP-PEST cells. […] Error bars represent standard deviation from biological replicates (n=6).

[1] = system: engineered Cas9 system comprising a functionalized guide with DHFR destabilization domain; experiment: Induction of ASCL1 mRNA by engineered DD-Cas9 SAM with stabilizing ligand (FIG. 11); assay type: cell-based; conditions: cells transiently transfected with DD-Cas9 SAM, treated with stabilizing ligand
Experimental: FIG. 11. […] Cells were transiently transfected with engineered DD-Cas9 SAM and ASCL1 mRNA was measured. Compared to untransfected cells, DD-Cas9-SAM induced expression of ASCL1 mRNA is observed.

ER50.SaCas9.ER50 = ER50.SaCas9.ER50 (Homo sapiens, UniProt P03372, G521R/L384M/M421G/N519S/T371A/Y537S); conditions: cells expressing ER50.SaCas9.ER50 treated with 40HT
ER50.SaCas9.ER50, sequence (P03372 305-549 T371A/L384M/M421G/N519S/G521R/Y537S limits assumed): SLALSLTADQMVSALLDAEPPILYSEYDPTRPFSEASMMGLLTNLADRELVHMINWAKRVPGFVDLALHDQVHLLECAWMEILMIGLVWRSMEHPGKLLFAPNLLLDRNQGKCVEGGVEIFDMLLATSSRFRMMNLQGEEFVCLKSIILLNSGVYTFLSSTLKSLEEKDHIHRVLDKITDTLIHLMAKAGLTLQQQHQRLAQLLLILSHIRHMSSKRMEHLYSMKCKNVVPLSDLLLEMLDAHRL
From the text: Assessment of dose-responsiveness of DD-regulated SaCas9 gene editing activity.

[2] = biological target: engineered Cas9-SAM system comprising a DD (ER50) (Homo sapiens, UniProt P03372, G521R/L384M/M421G/N519S/T371A/Y537S); conditions: ligand 4HT
engineered Cas9-SAM system comprising a DD (ER50), sequence (P03372 305-549 T371A/L384M/M421G/N519S/G521R/Y537S limits assumed): as above

ER50.MS2.p65.HSF1 = ER50.MS2.p65.HSF1 (Homo sapiens, UniProt P03372, G521R/L384M/M421G/N519S/T371A/Y537S); conditions: targeted to ASCL1; increasing concentrations of 40HT, 18 h, qPCR
ER50.MS2.p65.HSF1, sequence (P03372 with tags, fused parts or gaps T371A/L384M/M421G/N519S/G521R/Y537S limits assumed): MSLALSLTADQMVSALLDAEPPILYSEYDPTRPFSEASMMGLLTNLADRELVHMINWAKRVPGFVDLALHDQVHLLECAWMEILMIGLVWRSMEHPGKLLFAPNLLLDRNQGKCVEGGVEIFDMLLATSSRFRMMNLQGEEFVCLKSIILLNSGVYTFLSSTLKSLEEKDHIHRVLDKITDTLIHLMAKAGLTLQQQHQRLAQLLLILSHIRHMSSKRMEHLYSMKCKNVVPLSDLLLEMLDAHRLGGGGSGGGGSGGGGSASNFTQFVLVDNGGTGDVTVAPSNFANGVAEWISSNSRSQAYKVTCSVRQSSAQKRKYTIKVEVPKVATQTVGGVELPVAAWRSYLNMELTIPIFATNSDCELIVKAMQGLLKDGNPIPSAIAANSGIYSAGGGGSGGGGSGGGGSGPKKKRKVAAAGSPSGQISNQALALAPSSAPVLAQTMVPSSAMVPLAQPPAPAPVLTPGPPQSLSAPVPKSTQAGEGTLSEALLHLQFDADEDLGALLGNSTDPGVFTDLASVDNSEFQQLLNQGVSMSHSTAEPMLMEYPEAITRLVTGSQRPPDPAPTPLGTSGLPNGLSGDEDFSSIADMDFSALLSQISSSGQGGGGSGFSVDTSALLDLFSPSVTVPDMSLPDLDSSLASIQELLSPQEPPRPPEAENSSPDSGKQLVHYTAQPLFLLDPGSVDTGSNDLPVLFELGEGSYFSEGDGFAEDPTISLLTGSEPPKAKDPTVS
From the text: Multidimensional ‘chemical’ control of endogenous transcript levels. […] DHFR.PP7.VP64 was targeted to ILIRN, and ER50.MS2.p65.HSF1 was targeted to ASCL1. […] Error bars represent s.e.m. from biological replicates (n=3; a,c) or ±s.d. across technical replicates (n=4; b,d).

human FKBP12 = conditions: FKBP12 mutant DD; cited from earlier work
Drosophila = experiment: TMP-controlled gene drive in Drosophila for green body color; assay type: in vivo; conditions: in the presence of TMP, wt Cas9 for comparison, DMSO control ~50% (Mendelian inheritance)
DHFR = experiment: Binding of photocaged TMP derivative to DHFR; conditions: before exposure to light (NVOC group attached)
[3] = system: temperature-sensitive mutant of mammalian DHFR (DHFRts); conditions: cells expressing DHFRts; cited from earlier work
[4] = system: human embryonic stem cells (hESCs); experiment: Mutagenic NHEJ by double nickase in human embryonic stem cells; assay type: cell-based; conditions: Cas9-D10A and two gRNAs targeted to different strands at the same location, data not shown
From the text: In some embodiments, a vector comprises a regulatory element operably linked to an enzyme-coding sequence encoding a CRISPR protein (i.e. CRISPR/Cas system effector or CRISPR effector). […] The CRISPR enzyme is Cas9, and may be Cas9 from S. pyogenes or S. pneumoniae. In some embodiments, the CRISPR enzyme directs cleavage of one or both strands at the location of a target sequence, such as within the target sequence and/or within the complement of the target sequence. In some embodiments, the CRISPR enzyme directs cleavage of one or both strands within about 1, 2, 3, 4, 5, 6, 7, 8, 9, 10, 15, 20, 25, 50, 100, 200, 500, or more base pairs from the first or last nucleotide of a target sequence. In some embodiments, a vector encodes a CRISPR enzyme that is mutated to with respect to a corresponding wild-type enzyme such that the mutated CRISPR enzyme lacks the ability to cleave one or both strands of a target polynucleotide containing a target sequence. […] In some embodiments, a Cas9 nickase may be used in combination with guide sequenc(es), e.g., two guide sequences, which target respectively sense and antisense strands of the DNA target. This combination allows both strands to be nicked and used to induce NHEJ.

dystrophin = conditions: average, across 48 weeks; cited from earlier work

4-hydroxytamoxifen [40HT]
genome editing (dosability) (ER50.Cas9.ER50): High dosability
ASCL1 mRNA [1]: significant increase
nuclease activity (indel activity, Surveyor assay) (ER50.SaCas9.ER50): dose dependent increase
SAM-dependent expression of ASCL1 mRNA [2]: Increased
endogenous gene upregulation (dose response) (ER50.MS2.p65.HSF1): Highly dose-responsive

CC[C@H](C(=O)N1CCCC[C@H]1C(=O)O[C@H](CCc1ccc(OC)c(OC)c1)c1cccc(OCCN2CCOCC2)c1)c1cc(OC)c(OC)c(OC)c1 [Shield-1]
binding to and stabilization of the DD (human FKBP12): dose-dependent manner

COc1cc(Cc2cnc(N)nc2N)cc(OC)c1OC [TMP, trimethoprim]
inheritance of the green-body color (Drosophila): 84%
SpCas9-mediated knockout of the ebony gene (DHFR-SpCas9-DHFR; TMP dose dependence): Dose-dependent
time post TMP removal from the fly food within which % ebony knockout is lowered (DHFR-SpCas9-DHFR; TMP removal from the fly food): ≤ 24 h

COc1cc(COC(=O)Nc2ncc(Cc3cc(OC)c(OC)c(OC)c3)c(N)n2)c([N+](=O)[O-])cc1OC [TMP-NVOC]
binding to DHFR (DHFR): prevents photocaged TMP-NVOC from binding to DHFR

CN(Cc1cnc2nc(N)nc(N)c2n1)c1ccc(C(=O)N[C@@H](CCC(=O)O)C(=O)O)cc1 [methotrexate]
degradation of DHFRts [3]: inhibited degradation of the protein partially

double nickase: Cas9-D10A and two gRNAs targeted to different strands at the same location
efficiency of inducing mutagenic NHEJ relative to nuclease (regular Cas9 without D10 mutation) [4]: about 50%

eteplirsen
dystrophin positive fibers compared to baseline (dystrophin): 47%
